{"source": "patent US8343964B2", "about": "“Indolic derivatives, their preparation processes and their uses in particular as antibacterials” (Universite Joseph Fourier, priority 2007, dated 2013)", "key": {"[1]": {"test_system": "KB (human mouth carcinoma)", "experiment": "In vitro cytotoxicity on KB cells", "type": "cell-based", "description": "(§1) The in vitro cytotoxicity results, measured at a concentration of 10^−5 M, are described below. The cytotoxicity was measured on 5 cell lines—KB (human mouth carcinoma), MCF7 (breast carcinoma) and MCF7R (resistant strain), Vero (monkey kidney) and HCT116 (human colon tumour)."}, "[2]": {"test_system": "Staphylococcus aureus (ATCC 25923, sensitive Gram-positive strain)", "experiment": "Determination of the antibacterial activity: MIC in liquid Mueller-Hinton medium (intrinsic antibacterial activity)", "type": "cell-based", "details": "read-out: MIC / Antibacterial Activity (AA)", "description": "(§2) The two strains used are Staphylococcus aureus (ATCC 25923, sensitive Gram-positive strain) denoted S, and S. aureus ITS-1199 (without efflux), as well as its derivative S. aureus ITS-1199B (Kaatz, G. W., Seo, S. M., Antimicrob. Agents Chemother., 1995, 39, 2650-2655) having a resistance to the fluoroquinolones due to the overexpression of the efflux pump NorA and denoted R NorA. The bacteria are cultured at 37° C. in Mueller-Hinton (MH, Bio Rad) or Luria-Bertani (LB, Difco) Medium.\nThe experiments described hereafter are carried out following the recommendations of the Comité de l'Antibiogramme de la Société Française de Microbiologic (http://www.sfm.asso.fr/nouv/general.php See also Courvalin, P., Goldstein, F., Philippon, A., Sirot J. L'antibiogramme, 1985, M.P.C.-Videom editor). The antibacterial activity of the molecules was determined in liquid medium using a Biomek 2000 robot (Beckman) and micro-titration plates. The final volume in each well is 200 μl. A maximum volume of 5 μl of a solution of the molecule in DMSO is added to each well containing 10^6 CFU/ml (Colony Forming Units) of bacteria in MH medium. The final concentration of the molecule to be tested must be 100 or 128 μg/ml. […] Ampicillin is used as a positive control and the same volume of DMSO as that used to introduce the molecule (generally 2 to 5 μl) as a negative control.\nThe experiments are repeated three times."}, "[3]": {"experiment": "In vitro cytotoxicity on Vero cells", "type": "cell-based", "details": "monkey", "description": "as §1"}, "[4]": {"experiment": "In vitro cytotoxicity on HCT116 cells", "type": "cell-based", "details": "human, concentration of 10^−5 M, read-out: Average cytotoxicity (% inhibition), HCT116 cells", "description": "as §1"}, "[5]": {"test_system": "S. aureus ITS-1199B (overexpression of the efflux pump NorA)", "type": "cell-based, Staphylococcus aureus", "details": "resistant strain R NorA; for MIC (μg/ml) of compound in the presence of ciprofloxacin at 4 μg/ml (c/4): ciprofloxacin 4 μg/ml (c/4); for MIC (μg/ml) of compound in the presence of ciprofloxacin at 8 μg/ml (c/2): ciprofloxacin 8 μg/ml (c/2)", "description": "as §2\nThe experiences are carried out as above, but using the resistant strain, and looking at the effect of the mixture of the molecule to be tested and the antibiotic to which the bacterium is resistant. Thus, the method of a series of dilutions in Mueller-Hinton medium is used, also starting from a molecule concentration of 100 or 128 μg/ml."}, "[6]": {"experiment": "In vitro cytotoxicity on MCF7 cells", "type": "cell-based", "details": "human, MCF7 cells (breast carcinoma); concentration of 10^−5 M; read-out: Average cytotoxicity (% inhibition), MCF7 cells", "description": "as §1"}, "in vitro": {"experiment": "in vitro", "type": "cell-based", "details": "human", "description": "as §1"}, "[7]": {"details": "Vero cells (monkey kidney), concentration of 10^−5 M, read-out: Average cytotoxicity (% inhibition), Vero cells"}, "[8]": {"details": "HCT116 cells (human colon tumour)"}, "[9]": {"details": "ATCC25923, compound alone, lowest concentration allowing no growth after 18 hours at 37° C., 10^6 CFU/ml"}, "[10]": {"details": "concentration of 10^−5 M, read-out: Average cytotoxicity (% inhibition), Vero cells"}}, "note": "Read-outs that look alike come from different tables or passages of the source.", "data": [{"smiles": "CC(C)(C)OC(=O)NCC(NO)c1c[nH]c2ccc(Br)cc12", "note": "(centres unmarked) [(21), 1-N-(hydroxy)amino-2-[N′-(tert-butoxycarbonyl)amino]-1-(5′-bromo-3′-indolyl) ethane]", "values": [{"measurement": "Average cytotoxicity (% inhibition), KB cells", "setting": "[1]; concentration of 10^−5 M", "value": 0, "unit": "%"}, {"measurement": "MIC", "setting": "[2]; ATCC25923, 18 h", "value": 50, "unit": "µg/mL"}, {"measurement": "cytotoxicity", "setting": "[3]; [7]", "value": 11, "unit": "%"}, {"measurement": "cytotoxicity", "setting": "[4]; [8]", "value": 28, "unit": "%"}]}, {"smiles": "CC(c1c[nH]c2ccc(Br)cc12)/[N+]([O-])=C\\c1ccccc1", "note": "(centres unmarked) [(43)]", "values": [{"measurement": "MIC", "setting": "[2]; ATCC25923, 18 h", "value": 100, "unit": "µg/mL"}]}, {"smiles": "Cl.Cl.NCC(NO)c1c[nH]c2ccc(Br)cc12", "note": "(centres unmarked) [(32), 1-(N-hydroxy)-1,2-diamino-1-(5′-bromo-3′-indolyl)ethane dihydrochloride]", "values": [{"measurement": "Average cytotoxicity (% inhibition), KB cells", "setting": "[1]; concentration of 10^−5 M", "value": 23, "unit": "%"}, {"measurement": "MIC", "setting": "[2]; [9]", "value": 3, "unit": "µg/mL"}, {"measurement": "cytotoxicity", "setting": "[3]; [10]", "value": 20, "unit": "%"}]}, {"smiles": "COc1ccc(CN(O)C(C)c2c[nH]c3ccc(Br)cc23)cc1", "note": "(centres unmarked) [Compound (3)]", "values": [{"measurement": "MIC", "setting": "[2]; ATCC25923, 18 h", "value": 100, "unit": "µg/mL"}]}, {"smiles": "O=[N+]([O-])c1ccc(C(c2c[nH]c3ccccc23)N(O)Cc2ccccc2)cc1", "note": "(centres unmarked) [(42)]", "values": [{"measurement": "MIC", "setting": "[2]; ATCC25923, 18 h", "value": 50, "unit": "µg/mL"}]}, {"smiles": "CC(C)(C)OC(=O)NCC(c1c[nH]c2ccc(Br)cc12)/[N+]([O-])=C/c1ccccc1", "note": "(centres unmarked) [Compound (20 bis), N-(benzylidene)-2-[N′-(tert-butoxycarbonyl)amino]-1-(5′-bromo-3′-indolyl) ethanamine N-oxide]", "values": [{"measurement": "MIC (μg/ml) of compound in the presence of ciprofloxacin at 4 μg/ml (c/4)", "setting": "[5]", "value": "c/2 = 1 c/4 = 1 μg/ml"}, {"measurement": "MIC (μg/ml) of compound in the presence of ciprofloxacin at 8 μg/ml (c/2)", "setting": "[5]", "value": "c/2 = 1 c/4 = 1 μg/ml"}, {"measurement": "Average cytotoxicity (% inhibition), KB cells", "setting": "[1]; concentration of 10^−5 M", "value": 38.3, "unit": "%"}, {"measurement": "cytotoxicity", "setting": "[6]", "value": 23.3, "unit": "%"}, {"measurement": "cytotoxicity", "setting": "in vitro", "value": 38.1, "unit": "%"}]}, {"smiles": "CC(C)(C)OC(=O)NCC(c1c[nH]c2ccccc12)N(O)C(=O)OC(C)(C)C", "note": "(centres unmarked) [Compound (11)]", "values": [{"measurement": "Average cytotoxicity (% inhibition), KB cells", "setting": "[1]; concentration of 10^−5 M", "value": 14, "unit": "%"}, {"measurement": "cytotoxicity", "setting": "[3]; [7]", "value": 15, "unit": "%"}, {"measurement": "cytotoxicity", "setting": "[4]; [8]", "value": 22, "unit": "%"}]}, {"smiles": "CC(c1c[nH]c2ccccc12)N(O)Cc1ccccc1", "note": "(centres unmarked) [(37)]", "values": [{"measurement": "MIC (μg/ml) of compound in the presence of ciprofloxacin at 4 μg/ml (c/4)", "setting": "[5]", "value": ">8", "unit": "µg/mL"}, {"measurement": "MIC (μg/ml) of compound in the presence of ciprofloxacin at 8 μg/ml (c/2)", "setting": "[5]", "value": ">8", "unit": "µg/mL"}]}, {"smiles": "CC(C)(C)OC(=O)NCC(c1c[nH]c2ccc(Cl)cc12)N(O)C(=O)OC(C)(C)C", "note": "(centres unmarked) [Compound (12)]", "values": [{"measurement": "MIC (μg/ml) of compound in the presence of ciprofloxacin at 4 μg/ml (c/4)", "setting": "[5]", "value": 4, "unit": "µg/mL"}, {"measurement": "MIC", "setting": "[2]; [9]", "value": 12.5, "unit": "µg/mL"}]}, {"smiles": "COc1ccc2[nH]cc(C(CNC(=O)OC(C)(C)C)N(O)Cc3ccccc3)c2c1", "note": "(centres unmarked) [Compound (7)]", "values": [{"measurement": "Average cytotoxicity (% inhibition), KB cells", "setting": "[1]; concentration of 10^−5 M", "value": 15.6, "unit": "%"}, {"measurement": "cytotoxicity", "setting": "[3]; [7]", "value": 8, "unit": "%"}, {"measurement": "cytotoxicity", "setting": "[6]", "value": 9.7, "unit": "%"}, {"measurement": "cytotoxicity", "setting": "[4]; [8]", "value": 10, "unit": "%"}, {"measurement": "cytotoxicity", "setting": "in vitro", "value": 10.1, "unit": "%"}]}, {"smiles": "CC(C)(C)OC(=O)NCC(c1c[nH]c2ccc(Br)cc12)N(O)C(=O)OC(C)(C)C", "note": "(centres unmarked) [Compound (13), 1-[N-(tert-butoxycarbonyl)-N-(hydroxy)amino]-2-[N-(tert-butoxycarbonyl)]-1-(5′-bromo-3′-indolyl)ethane]", "values": [{"measurement": "MIC", "setting": "[2]; ATCC25923, 18 h", "value": 50, "unit": "µg/mL"}]}, {"smiles": "CC(C)CC(c1c[nH]c2ccccc12)N(O)C(=O)OC(C)(C)C", "note": "(centres unmarked) [Compound (47)]", "values": [{"measurement": "MIC (μg/ml) of compound in the presence of ciprofloxacin at 4 μg/ml (c/4)", "setting": "[5]", "value": 32, "unit": "µg/mL"}, {"measurement": "MIC", "setting": "[2]; [9]", "value": 64, "unit": "µg/mL"}]}, {"smiles": "CC(C)(C)OC(=O)NCC(N)c1c[nH]c2cc(Br)ccc12", "note": "(centres unmarked) [(26)]", "values": [{"measurement": "MIC", "setting": "[2]; ATCC25923, 18 h", "value": 25, "unit": "µg/mL"}]}, {"smiles": "O=C(CONC(=O)OCC1c2ccccc2-c2ccccc21)NC(COCc1ccccc1)c1c[nH]c2ccccc12", "note": "(centres unmarked) [Compound (48)]", "values": [{"measurement": "MIC (μg/ml) of compound in the presence of ciprofloxacin at 4 μg/ml (c/4)", "setting": "[5]", "value": 2, "unit": "µg/mL"}]}, {"smiles": "COc1ccc2c(C(N)CN)c[nH]c2c1", "note": "(centres unmarked) [(31)]", "values": [{"measurement": "Average cytotoxicity (% inhibition), KB cells", "setting": "[1]; human", "value": 41, "unit": "%"}, {"measurement": "MIC", "setting": "[2]; [9]", "value": 64, "unit": "µg/mL"}, {"measurement": "cytotoxicity", "setting": "[3]", "value": 27, "unit": "%"}]}, {"smiles": "CC(C)(C)OC(=O)NCC(N)c1c[nH]c2ccc(Br)cc12", "note": "(centres unmarked) [(25), 1-amino-2-[N′-(tert-butoxycarbonyl)amino]-1-(5′-bromo-3′-indolyl) ethane]", "values": [{"measurement": "MIC", "setting": "[2]; ATCC25923, 18 h", "value": 25, "unit": "µg/mL"}]}, {"smiles": "Cl.Cl.NCC(N)c1c[nH]c2ccc(Br)cc12", "note": "(centres unmarked) [(27), 1,2-diamino-1-(5′-bromo-3′-indolyl)ethane dihydrochloride]", "values": [{"measurement": "Average cytotoxicity (% inhibition), KB cells", "setting": "[1]; concentration of 10^−5 M", "value": 0, "unit": "%"}, {"measurement": "MIC", "setting": "[2]; [9]", "value": 25, "unit": "µg/mL"}, {"measurement": "cytotoxicity", "setting": "[3]; [10]", "value": 14, "unit": "%"}, {"measurement": "cytotoxicity", "setting": "[4]", "value": 26, "unit": "%"}]}, {"smiles": "CC(c1c[nH]c2cc(Br)ccc12)N(O)Cc1ccccc1", "note": "(centres unmarked) [Compound (2)]", "values": [{"measurement": "MIC", "setting": "[2]; ATCC25923, 18 h", "value": 100, "unit": "µg/mL"}]}]}
